The source of these data is US20070128217A1 (priority 2003, published 2007).

For experiment [1], the system named is control sera (pooled serum of ten healthy LUMC hospital workers; commercial negative donor pooled serum from the Dutch bloodbank). The class given is binding, human. Details: Binding of Control serum LUMC to linear peptides / Binding of Control serum Blood-bank to linear peptides / Binding of Control serum LUMC to looped peptides / Binding of Control Serum Blood-Bank to Looped peptides / Binding of Control serum LUMC to linear peptides of the protein M of SARS-CoV Urbani / Binding of Control serum Blood-bank to linear peptides of the protein M of SARS-CoV Urbani / Binding of Control serum LUMC to looped peptides of the protein M of SARS-CoV Urbani / Binding of Control Serum Blood-Bank to Looped peptides of the protein M of SARS-CoV Urbani: unit not given here.

For experiment [2], the system named is rabbit serum obtained by immunizing a rabbit with the SARS-CoV strain Frankfurt 1. The class given is binding. Details: Binding of a rabbit serum to linear peptides / Binding of a rabbit serum to looped peptides / Rabbit serum linear peptides / Rabbit serum looped peptides / Binding of a rabbit serum to linear peptides of protein N of SARS-CoV Urbani (Rabbit serum linear peptides) / Binding of a rabbit serum to looped/cyclic peptides of protein N of SARS-CoV Urbani (Rabbit serum looped peptides): unit not given here.

Regarding CWHTHNYDYCIPYNS, in experiment [1], the “Binding of Control Serum Blood-Bank to Looped peptides” value came out at 0.6, the “Binding of Control serum Blood-bank to linear peptides” value came to 0.6, the “Binding of Control serum LUMC to linear peptides” value amounted to 0.7 and the “Binding of Control serum LUMC to looped peptides” value is given as 0.6. In experiment [2], the “Binding of a rabbit serum to linear peptides” value stood at 0.1 and the “Binding of a rabbit serum to looped peptides” value is given as 0.7.
Regarding DGSSGVANPAMDPIY, in experiment [1], the “Binding of Control Serum Blood-Bank to Looped peptides” value is reported as 0.5, the “Binding of Control serum Blood-bank to linear peptides” value turned out to be 0.9, the “Binding of Control serum LUMC to linear peptides” value was determined as 0.8 and the “Binding of Control serum LUMC to looped peptides” value is on record as 0.4. For the same sequence, in experiment [2], the “Binding of a rabbit serum to linear peptides” value turned out to be 0.1 and the “Binding of a rabbit serum to looped peptides” value turned out to be 0.6.
Take DYQIGGYSEDRHSGV: in experiment [1], the “Binding of Control Serum Blood-Bank to Looped peptides” value was 0.5, the “Binding of Control serum Blood-bank to linear peptides” value worked out at 0.6, the “Binding of Control serum LUMC to linear peptides” value turned out to be 0.5 and the “Binding of Control serum LUMC to looped peptides” value worked out at 0.7. In experiment [2], the “Binding of a rabbit serum to linear peptides” value is on record as 0.1 and the “Binding of a rabbit serum to looped peptides” value came out at 0.5.
For the sequence EDRHSGVKDYVVVHG, in experiment [1], the “Binding of Control Serum Blood-Bank to Looped peptides” value stood at 1.1, the “Binding of Control serum Blood-bank to linear peptides” value was 0.9, the “Binding of Control serum LUMC to linear peptides” value is 0.9 and the “Binding of Control serum LUMC to looped peptides” value is 0.7. In addition, in experiment [2], the “Binding of a rabbit serum to linear peptides” value worked out at 0.1 and the “Binding of a rabbit serum to looped peptides” value is on record as 0.3.
As to EDYQIGGYSEDRHSG, in experiment [1], the “Binding of Control Serum Blood-Bank to Looped peptides” value was 0.4, the “Binding of Control serum Blood-bank to linear peptides” value is listed as 0.4, the “Binding of Control serum LUMC to linear peptides” value was 0.4 and the “Binding of Control serum LUMC to looped peptides” value stood at 0.5. Further, in experiment [2], the “Binding of a rabbit serum to linear peptides” value amounted to 0.1 and the “Binding of a rabbit serum to looped peptides” value was 0.6.
With FFTLGSITAQPVKID, in experiment [1], the “Binding of Control Serum Blood-Bank to Looped peptides” value stood at 0.2, the “Binding of Control serum Blood-bank to linear peptides” value amounted to 0.5, the “Binding of Control serum LUMC to linear peptides” value was 0.5 and the “Binding of Control serum LUMC to looped peptides” value turned out to be 0.3. Further, in experiment [2], the “Binding of a rabbit serum to linear peptides” value is 1.1 and the “Binding of a rabbit serum to looped peptides” value worked out at 0.0.
For the sequence FHPLADNKFALTCTS, in experiment [1], the “Binding of Control Serum Blood-Bank to Looped peptides” value amounted to 0.8, the “Binding of Control serum Blood-bank to linear peptides” value turned out to be 0.8, the “Binding of Control serum LUMC to linear peptides” value is on record as 0.8 and the “Binding of Control serum LUMC to looped peptides” value is 0.8. For the same sequence, in experiment [2], the “Rabbit serum linear peptides” value is recorded as 0.4 and the “Rabbit serum looped peptides” value is 0.2.
Consider FNKLVKDPPNVQIHT, for which, in experiment [1], the “Binding of Control Serum Blood-Bank to Looped peptides” value is 0.8, the “Binding of Control serum Blood-bank to linear peptides” value is listed as 0.8, the “Binding of Control serum LUMC to linear peptides” value was determined as 0.9 and the “Binding of Control serum LUMC to looped peptides” value is recorded as 0.7. Further, in experiment [2], the “Binding of a rabbit serum to linear peptides” value turned out to be 0.1 and the “Binding of a rabbit serum to looped peptides” value is on record as 0.7.
As for GDGISTPKLKEDYQI, in experiment [1], the “Binding of Control Serum Blood-Bank to Looped peptides” value is 0.4, the “Binding of Control serum Blood-bank to linear peptides” value is 0.6, the “Binding of Control serum LUMC to linear peptides” value came to 0.5 and the “Binding of Control serum LUMC to looped peptides” value was 0.4. For the same sequence, in experiment [2], the “Binding of a rabbit serum to linear peptides” value was determined as 0.1 and the “Binding of a rabbit serum to looped peptides” value is recorded as 0.5.
For the sequence GGIAIAMACIVGLMW, in experiment [1], the “Binding of Control Serum Blood-Bank to Looped peptides of the protein M of SARS-CoV Urbani” value was determined as 0.8, the “Binding of Control serum Blood-bank to linear peptides of the protein M of SARS-CoV Urbani” value amounted to 0.8, the “Binding of Control serum LUMC to linear peptides of the protein M of SARS-CoV Urbani” value is on record as 0.8 and the “Binding of Control serum LUMC to looped peptides of the protein M of SARS-CoV Urbani” value was determined as 0.9. For the same sequence, in experiment [2], the “Rabbit serum linear peptides” value is given as 0.2 and the “Rabbit serum looped peptides” value amounted to 0.3.
Consider GRCDIKDLPKEITVA, for which, in experiment [1], the “Binding of Control Serum Blood-Bank to Looped peptides of the protein M of SARS-CoV Urbani” value was 1.0, the “Binding of Control serum Blood-bank to linear peptides of the protein M of SARS-CoV Urbani” value amounted to 0.5, the “Binding of Control serum LUMC to linear peptides of the protein M of SARS-CoV Urbani” value is 0.1 and the “Binding of Control serum LUMC to looped peptides of the protein M of SARS-CoV Urbani” value is reported as 0.9. For the same sequence, in experiment [2], the “Rabbit serum linear peptides” value is listed as 0.0 and the “Rabbit serum looped peptides” value is on record as 0.1.
With GVANPAMDPIYDEPT, in experiment [1], the “Binding of Control Serum Blood-Bank to Looped peptides” value came to 0.5, the “Binding of Control serum Blood-bank to linear peptides” value is recorded as 0.4, the “Binding of Control serum LUMC to linear peptides” value is reported as 0.3 and the “Binding of Control serum LUMC to looped peptides” value is 0.6. In experiment [2], the “Binding of a rabbit serum to linear peptides” value is listed as 0.1 and the “Binding of a rabbit serum to looped peptides” value amounted to 0.6.
For GYSEDRHSGVKDYVV, in experiment [1], the “Binding of Control Serum Blood-Bank to Looped peptides” value is 0.6, the “Binding of Control serum Blood-bank to linear peptides” value was 0.8, the “Binding of Control serum LUMC to linear peptides” value stood at 0.8 and the “Binding of Control serum LUMC to looped peptides” value came to 0.6. For the same sequence, in experiment [2], the “Binding of a rabbit serum to linear peptides” value stood at 0.1 and the “Binding of a rabbit serum to looped peptides” value is reported as 0.3.
Regarding HPLGRCDIKDLPKEI, in experiment [1], the “Binding of Control Serum Blood-Bank to Looped peptides of the protein M of SARS-CoV Urbani” value is given as 1.0, the “Binding of Control serum Blood-bank to linear peptides of the protein M of SARS-CoV Urbani” value turned out to be 1.0, the “Binding of Control serum LUMC to linear peptides of the protein M of SARS-CoV Urbani” value was 0.7 and the “Binding of Control serum LUMC to looped peptides of the protein M of SARS-CoV Urbani” value is given as 0.7. Also, in experiment [2], the “Rabbit serum linear peptides” value is 0.2 and the “Rabbit serum looped peptides” value was 1.1.
For HQNSKKTTKLVVILR, in experiment [1], the “Binding of Control Serum Blood-Bank to Looped peptides” value was found to be 0.6, the “Binding of Control serum Blood-bank to linear peptides” value is recorded as 0.5, the “Binding of Control serum LUMC to linear peptides” value was 0.8 and the “Binding of Control serum LUMC to looped peptides” value is reported as 0.6. In addition, the “Recognition of the peptide by the rabbit serum” value in experiment [2] is reported as “recognized”.
For the sequence HQTAAFRDVLVVLNK, in experiment [1], the “Binding of Control Serum Blood-Bank to Looped peptides” value was found to be 0.8, the “Binding of Control serum Blood-bank to linear peptides” value turned out to be 0.5, the “Binding of Control serum LUMC to linear peptides” value is recorded as 0.9 and the “Binding of Control serum LUMC to looped peptides” value worked out at 0.6. In experiment [2], the “Rabbit serum linear peptides” value stood at 0.4 and the “Rabbit serum looped peptides” value came to 0.8.
HTHNYDYCIPYNSVT: in experiment [1], the “Binding of Control Serum Blood-Bank to Looped peptides” value came out at 0.6, the “Binding of Control serum Blood-bank to linear peptides” value is 0.6, the “Binding of Control serum LUMC to linear peptides” value is 0.7 and the “Binding of Control serum LUMC to looped peptides” value is on record as 0.6. In addition, in experiment [2], the “Binding of a rabbit serum to linear peptides” value was 0.1 and the “Binding of a rabbit serum to looped peptides” value stood at 0.6.
In the case of HYQECVRGTTVLLKE, in experiment [1], the “Binding of Control Serum Blood-Bank to Looped peptides” value is recorded as 0.9, the “Binding of Control serum Blood-bank to linear peptides” value is 0.8, the “Binding of Control serum LUMC to linear peptides” value is on record as 0.7 and the “Binding of Control serum LUMC to looped peptides” value is 1.0. In experiment [2], the “Rabbit serum linear peptides” value is 0.5 and the “Rabbit serum looped peptides” value was found to be 0.5.
Turning to IAIAMACIVGLMWLS, in experiment [1], the “Binding of Control Serum Blood-Bank to Looped peptides of the protein M of SARS-CoV Urbani” value came out at 0.8, the “Binding of Control serum Blood-bank to linear peptides of the protein M of SARS-CoV Urbani” value was 0.5, the “Binding of Control serum LUMC to linear peptides of the protein M of SARS-CoV Urbani” value came to 0.6 and the “Binding of Control serum LUMC to looped peptides of the protein M of SARS-CoV Urbani” value turned out to be 0.7. Besides, in experiment [2], the “Rabbit serum linear peptides” value stood at 0.1 and the “Rabbit serum looped peptides” value came out at 0.3.
IDNASPASTVHATAT: in experiment [1], the “Binding of Control Serum Blood-Bank to Looped peptides” value is 0.7, the “Binding of Control serum Blood-bank to linear peptides” value is given as 0.8, the “Binding of Control serum LUMC to linear peptides” value is 0.7 and the “Binding of Control serum LUMC to looped peptides” value is 0.6. In addition, in experiment [2], the “Binding of a rabbit serum to linear peptides” value was 0.5 and the “Binding of a rabbit serum to looped peptides” value came to 0.3.
Turning to IFNKLVKDPPNVQIH, in experiment [1], the “Binding of Control Serum Blood-Bank to Looped peptides” value turned out to be 0.6, the “Binding of Control serum Blood-bank to linear peptides” value was found to be 1.1, the “Binding of Control serum LUMC to linear peptides” value was 1.0 and the “Binding of Control serum LUMC to looped peptides” value was 0.6. For the same sequence, in experiment [2], the “Binding of a rabbit serum to linear peptides” value amounted to 0.1 and the “Binding of a rabbit serum to looped peptides” value is 0.6.
As for IGTQVLKTMSLYMAI, in experiment [1], the “Binding of Control Serum Blood-Bank to Looped peptides” value was found to be 0.9, the “Binding of Control serum Blood-bank to linear peptides” value was 0.8, the “Binding of Control serum LUMC to linear peptides” value was determined as 0.5 and the “Binding of Control serum LUMC to looped peptides” value stood at 1.0. Moreover, in experiment [2], the “Binding of a rabbit serum to linear peptides” value is 0.1 and the “Binding of a rabbit serum to looped peptides” value is on record as 0.4.
On to IIIMRTFRIAIWNLD, for which, in experiment [1], the “Binding of Control Serum Blood-Bank to Looped peptides of the protein X3 of SARS-CoV Urbani” value stood at 0.8, the “Binding of Control serum Blood-bank to linear peptides of the protein X3 of SARS-CoV Urbani” value came out at 0.9, the “Binding of Control serum LUMC to linear peptides of the protein X3 of SARS-CoV Urbani” value is listed as 0.9 and the “Binding of Control serum LUMC to looped peptides of the protein X3 of SARS-CoV Urbani” value came out at 0.8. In addition, in experiment [2], the “Rabbit serum linear peptides” value is 0.4 and the “Rabbit serum looped peptides” value was 0.5.
IMRTFRIAIWNLDVI: in experiment [1], the “Binding of Control Serum Blood-Bank to Looped peptides of the protein X3 of SARS-CoV Urbani” value was 0.9, the “Binding of Control serum Blood-bank to linear peptides of the protein X3 of SARS-CoV Urbani” value is on record as 0.8, the “Binding of Control serum LUMC to linear peptides of the protein X3 of SARS-CoV Urbani” value stood at 0.8 and the “Binding of Control serum LUMC to looped peptides of the protein X3 of SARS-CoV Urbani” value is 0.8. In addition, in experiment [2], the “Rabbit serum linear peptides” value turned out to be 0.4 and the “Rabbit serum looped peptides” value was 0.6.
